Laboratory results: PubChem BioAssay AID248 (DTP/NCI, 2004)
“And” between values parts separate entries of the source, which are not always exact repeats. Equal values may be shown once. Inconclusive results and toxic doses are left out. Cut-off read from the data, not from the text of the source: active = T/C of 150% or more; inactive = T/C below 125%.

System: L1210 leukemia ip in BDF1 mice, survival T/C
Assay: NCI In Vivo Anticancer Drug Screen. Data for tumor model L1210 Leukemia (intraperitoneal) in B6D2F1 (BDF1) mice
Settings: endpoint: mean survival time, higher = longer survival
Outline: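 Transplantable tumor model; survival measured in treated vs vehicle control mice. Value = treated/control.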

[1] = dose: 100.0 mg/kg/injection, schedule: Q04DX003 (ip), vehicle: Klucel (hydroxypropylcellulose) (HPC)
[2] = dose: 200.0 mg/kg/injection, schedule: Q04DX003 (ip), vehicle: Klucel (hydroxypropylcellulose) (HPC)
[3] = dose: 400.0 mg/kg/injection, schedule: Q04DX003 (ip), vehicle: Klucel (hydroxypropylcellulose) (HPC)
[4] = dose: 100.0 mg/kg/injection, schedule: Q01DX009 (ip), vehicle: saline with Tween-80
[5] = dose: 200.0 mg/kg/injection, schedule: Q01DX009 (ip), vehicle: saline with Tween-80
[6] = dose: 400.0 mg/kg/injection, schedule: Q01DX009 (ip), vehicle: saline with Tween-80
[7] = dose: 50.0 mg/kg/injection, schedule: Q01DX001 (ip), vehicle: Klucel (hydroxypropylcellulose) (HPC)
[8] = dose: 100.0 mg/kg/injection, schedule: Q01DX001 (ip), vehicle: Klucel (hydroxypropylcellulose) (HPC)
[9] = dose: 200.0 mg/kg/injection, schedule: Q01DX001 (ip), vehicle: Klucel (hydroxypropylcellulose) (HPC)
[10] = dose: 100.0 mg/kg/injection, schedule: Q04DX003 (ip), vehicle: saline with Tween-80
[11] = dose: 200.0 mg/kg/injection, schedule: Q04DX003 (ip), vehicle: saline with Tween-80
[12] = dose: 400.0 mg/kg/injection, schedule: Q04DX003 (ip), vehicle: saline with Tween-80
[13] = dose: 50.0 mg/kg/injection, schedule: Q01DX001 (ip), vehicle: carboxymethylcellulose (CMC)
[14] = dose: 100.0 mg/kg/injection, schedule: Q01DX001 (ip), vehicle: carboxymethylcellulose (CMC)
[15] = dose: 200.0 mg/kg/injection, schedule: Q01DX001 (ip), vehicle: carboxymethylcellulose (CMC)
[16] = dose: 400.0 mg/kg/injection, schedule: Q01DX001 (ip), vehicle: carboxymethylcellulose (CMC)
[17] = dose: 100.0 mg/kg/injection, schedule: Q01DX001 (ip), vehicle: saline
[18] = dose: 200.0 mg/kg/injection, schedule: Q01DX001 (ip), vehicle: saline
[19] = dose: 400.0 mg/kg/injection, schedule: Q01DX001 (ip), vehicle: saline
[20] = dose: 100.0 mg/kg/injection, schedule: Q04DX002 (ip), vehicle: Klucel (hydroxypropylcellulose) (HPC)
[21] = dose: 200.0 mg/kg/injection, schedule: Q04DX002 (ip), vehicle: Klucel (hydroxypropylcellulose) (HPC)
[22] = dose: 400.0 mg/kg/injection, schedule: Q04DX002 (ip), vehicle: Klucel (hydroxypropylcellulose) (HPC)

Measured: T/C

O=[N+]([O-])c1cc(C(F)(F)C(F)(F)C(F)(F)c2ccc(O)c([N+](=O)[O-])c2)ccc1O
inactive: dose: 25.6 mg/kg/injection, schedule: Q04DX002 (ip), vehicle: saline with Tween-80 95 % of control | dose: 64.0 mg/kg/injection, schedule: Q04DX002 (ip), vehicle: saline with Tween-80 100 % of control | dose: 160.0 mg/kg/injection, schedule: Q04DX002 (ip), vehicle: saline with Tween-80 92 % of control

CCCCOP(=O)(C=C(C(C)=O)C(C)=O)OCCCC
inactive: [1] 95 % of control | [2] 119 % of control | [3] 97 % of control

N#C/C(=C/C=C/c1ccccc1)c1cccc([N+](=O)[O-])c1
inactive: [4] 108 % of control | [5] 91 % of control | [6] 100 % of control

CCOP(N)(=S)OCC
inactive: dose: 75.0 mg/kg/injection, schedule: Q01DX001 (ip), vehicle: saline 102 % of control | dose: 150.0 mg/kg/injection, schedule: Q01DX001 (ip), vehicle: saline 102 % of control

NC(=O)C(NC(=O)c1ccccc1)Sc1ccccc1 (stereo not drawn)
inactive: [7] 100 % of control | [8] 100 % of control | [9] 96 % of control

CC(=O)/C(C)=C/C=O
inactive: dose: 0.78 mg/kg/injection, schedule: Q01DX009 (ip), vehicle: water 100 % of control | dose: 1.56 mg/kg/injection, schedule: Q01DX009 (ip), vehicle: water 102 % of control | dose: 3.12 mg/kg/injection, schedule: Q01DX009 (ip), vehicle: water 94 % of control | dose: 3.12 mg/kg/injection, schedule: Q04DX003 (ip), vehicle: water 95 % of control | dose: 6.25 mg/kg/injection, schedule: Q01DX009 (ip), vehicle: water 102 % of control | dose: 6.25 mg/kg/injection, schedule: Q04DX003 (ip), vehicle: water 101 % of control | dose: 12.5 mg/kg/injection, schedule: Q01DX009 (ip), vehicle: water 107 % of control | dose: 12.5 mg/kg/injection, schedule: Q04DX003 (ip), vehicle: water 100 % of control and 101 % of control

Cc1ccc(C(=O)c2ccccc2C(=O)O)cc1N
inactive: [4] 105 % of control | [10] 99 % of control | [5] 97 % of control | [11] 99 % of control | [6] 106 % of control | [12] 97 % of control

Cc1cc(C)c(C(=O)OC(C)CNC2CCCCC2)c(C)c1 (stereo not drawn)
inactive: dose: 75.0 mg/kg/injection, schedule: Q01DX001 (ip), vehicle: carboxymethylcellulose (CMC) 96 % of control | dose: 150.0 mg/kg/injection, schedule: Q01DX001 (ip), vehicle: carboxymethylcellulose (CMC) 102 % of control

O=C1c2ccccc2-c2cc(Br)c(NC(Cl)Cl)cc21
inactive: [10] 94 % of control | [11] 93 % of control | [12] 94 % of control

CCCC(C)OC(=O)Nc1cccc(OC(=O)NC)c1 (stereo not drawn)
inactive: [10] 102 % of control | [11] 98 % of control | [12] 101 % of control

O=c1[nH]cnc2c1ncn2-c1ccc(N(CCO)CCO)cc1
inactive: [13] 98 % of control | [14] 115 % of control | [15] 95 % of control | [16] 98 % of control

CC(C)CC(=O)Cc1ccccc1
inactive: [17] 105 % of control | [18] 105 % of control | [19] 105 % of control

CN(C)CCCCN(C)CCCN(C)C
inactive: [17] 114 % of control | [18] 102 % of control | [19] 98 % of control

O=C(O)C(Nc1ccc(Cc2ccc(NC(C(=O)O)c3ccccc3)cc2)cc1)c1ccccc1 (stereo not drawn)
inactive: [20] 100 % of control | [21] 103 % of control | [22] 92 % of control

COc1ccc(C(=O)CN2C=C(C(=O)c3cc4ccccc4n3S(=O)(=O)c3ccccc3)CCC2)cc1
inactive: dose: 100.0 mg/kg/injection, schedule: Q04DX002 (ip), vehicle: saline with Tween-80 94 % of control | dose: 200.0 mg/kg/injection, schedule: Q04DX002 (ip), vehicle: saline with Tween-80 87 % of control | dose: 400.0 mg/kg/injection, schedule: Q04DX002 (ip), vehicle: saline with Tween-80 87 % of control

C=CCc1ccccc1OCC(=O)O
inactive: [20] 91 % of control | [21] 95 % of control | [22] 104 % of control

CC(=O)NNCc1ccccc1
inactive: [8] 103 % of control | [9] 103 % of control | dose: 400.0 mg/kg/injection, schedule: Q01DX001 (ip), vehicle: Klucel (hydroxypropylcellulose) (HPC) 97 % of control

CCN(CC)CCCC(C)Nc1cc(/C=C/c2ccc(Cl)cc2)nc(/C=C/c2ccc(Cl)cc2)n1 (stereo not drawn)
inactive: dose: 50.0 mg/kg/injection, schedule: Q04DX003 (ip), vehicle: Klucel (hydroxypropylcellulose) (HPC) 96 % of control | [17] 96 % of control | [1] 96 % of control | [18] 98 % of control | [2] 98 % of control

Nc1nc2c(ncn2-c2cccc(NS(=O)(=O)c3cccc(S(=O)(=O)F)c3)c2)c(=O)[nH]1
inactive: dose: 25.0 mg/kg/injection, schedule: Q01DX001 (ip), vehicle: Klucel (hydroxypropylcellulose) (HPC) 96 % of control | [7] 98 % of control | [8] 94 % of control

CCCCCCOc1ccc(C=Nc2ccc(C(=O)OCC)cc2)cc1
inactive: dose: 50.0 mg/kg/injection, schedule: Q01DX009 (ip), vehicle: Klucel (hydroxypropylcellulose) (HPC) 96 % of control | dose: 100.0 mg/kg/injection, schedule: Q01DX009 (ip), vehicle: Klucel (hydroxypropylcellulose) (HPC) 97 % of control | dose: 200.0 mg/kg/injection, schedule: Q01DX009 (ip), vehicle: Klucel (hydroxypropylcellulose) (HPC) 97 % of control

O=C(Nc1ccc(CCO)cc1)c1ccc(F)cc1
inactive: [4] 102 % of control | [5] 93 % of control | [6] 93 % of control

COC(=O)c1c[nH]c2ccc(Br)cc12
inactive: dose: 100.0 mg/kg/injection, schedule: Q04DX003 (ip), vehicle: saline 108 % of control | dose: 200.0 mg/kg/injection, schedule: Q04DX003 (ip), vehicle: saline 92 % of control | dose: 400.0 mg/kg/injection, schedule: Q04DX003 (ip), vehicle: saline 89 % of control

CC(=O)C1CCC2C3CC=C4CC(O)C=CC4(C)C3CCC12C (stereo not drawn)
inactive: [1] 92 % of control | [2] 96 % of control | [3] 92 % of control

O[O][Ge]([c]1ccccc1)([c]1ccccc1)[c]1ccccc1
inactive: [1] 88 % of control | [2] 91 % of control | [3] 88 % of control

CCOc1ccc(C2(C)CC(=O)NN2)c(O)c1 (stereo not drawn)
inactive: dose: 100.0 mg/kg/injection, schedule: Q01DX001 (ip), vehicle: saline with Tween-80 101 % of control | dose: 200.0 mg/kg/injection, schedule: Q01DX001 (ip), vehicle: saline with Tween-80 103 % of control | dose: 400.0 mg/kg/injection, schedule: Q01DX001 (ip), vehicle: saline with Tween-80 98 % of control

CCOC(=O)/C(C)=N\Nc1ccc([N+](=O)[O-])cc1
inactive: [13] 92 % of control | [14] 90 % of control | [15] 92 % of control | [16] 103 % of control

CCCCCCCCCCCC(C)NCc1ccccc1 (stereo not drawn)
inactive: dose: 6.25 mg/kg/injection, schedule: Q01DX009 (ip), vehicle: saline with Tween-80 89 % of control | dose: 12.5 mg/kg/injection, schedule: Q01DX009 (ip), vehicle: saline with Tween-80 89 % of control | dose: 25.0 mg/kg/injection, schedule: Q01DX009 (ip), vehicle: saline with Tween-80 97 % of control | dose: 25.0 mg/kg/injection, schedule: Q04DX003 (ip), vehicle: saline 94 % of control | dose: 35.0 mg/kg/injection, schedule: Q01DX009 (ip), vehicle: acetone 92 % of control

Cc1ccc(NC2=C(Cl)C(=O)c3ccccc3C2=O)cc1
inactive: [13] 101 % of control | [14] 95 % of control | [15] 93 % of control | [16] 89 % of control

CSCCNC(=O)CS(=O)(=O)c1ccc(C)cc1
inactive: [10] 100 % of control | [11] 100 % of control | [12] 92 % of control

NS(=O)(=O)c1ccc(CNC(=O)c2ccc(C(=O)NCc3ccc(S(N)(=O)=O)cc3)cc2)cc1
inactive: [17] 111 % of control | [18] 103 % of control | [19] 103 % of control
